Structures can show the parent of a compound that is named as a salt.
molecular target: T1, substance P receptor (Homo sapiens, UniProt P25103); assay: Radioligand receptor binding inhibitory activity using receptor from human lymphoblast cells (IM-9); conditions: [125I]-BHSP binding, receptor from IM-9 cells, 25 C, 30 min
T1 construct: endogenous in cells; host or cells: IM-9 human lymphoblast cells (membrane preparation)
Description: Radioligand receptor binding inhibitory activity (Binding inhibitory activity using receptor from human lymphoblast cells (IM-9))
The method of M. A. Cascieri et al., “Molecular Pharmacology 42, p. 458 (1992)” was modified and used. The receptor was. prepared from human lymphoblast cells (IM-9). IM-9 cells (2×10^5 cells/mL) were incubated for 3 days (one liter), which was then subjected to centrifuge for 5 min. at 500×G to obtain cell pellets. The obtained pellets were washed once with phosphate buffer (Flow Laboratories, CAT. No. 28-103-05), which were then homogenized using Polytron homogenizer (“Kinematika”, Germany) in 30 mL of 50 mM Tris-HCl buffer (pH 7.4) containing 120 mM sodium chloride, 5 mM potassium chloride, 2 μg/mL chymostatin, 40 μg/mL bacitracin, 5 μg/mL phosphoramidon, 0.5 mM phenylmethylsulfonyl fluoride, 1 mM ethylenediamine tetra-acetate, which was subjected to centrifuge at 40,000×G for 20 min. The residue was washed twice with 30 mL of the buffer, which was then preserved frozen (−80° C.) as a specimen of the receptor.
The specimen was suspended in a reaction buffer (50 mM Tris-HCl buffer (pH 7.4), 0.02% bovine serum albumin, 1 mM phenylmethylsulfonyl fluoride, 2 μg/mL chymostatin, 40 μg/mL bacitracin and 3 mM manganese chloride) to have protein in the concentration of 0.5 mg/mL of protein and 100 μL portion of the suspension was used in the reaction. After addition of the sample and ^125]-BHSP (0.46 KBq), the reaction was allowed to proceed in 0.2 mL of reaction buffer at […] for 30 min. The amount of nonspecific binding was determined by adding substance P at a final concentration of 2×10^−6 M.
After the reaction, using a cell harvester (290 PHD, Cambridge Technology, Inc, U.S.A.), filtration was carried out through a glass filter (GF/B, Whatman, U.S.A.), which was immersed in 0.1% polyethyleneimine for 24 hrs. and dried. After washing three times with 250 μL of 50 mM Tris-HCl buffer (pH 7.4) containing 0.02% bovine serum albumin, the radioactivity remaining on the filter was. determined with a gamma counter.
The antagonistic activity of each compound obtained in Examples was determined in terms of the concentration necessary to cause 50% inhibition (IC50 value) under the above-described conditions, and the results were shown in Table 14.
The radio ligand means substance P labeled with [^125I].

T1 sequence (P25103 whole entry): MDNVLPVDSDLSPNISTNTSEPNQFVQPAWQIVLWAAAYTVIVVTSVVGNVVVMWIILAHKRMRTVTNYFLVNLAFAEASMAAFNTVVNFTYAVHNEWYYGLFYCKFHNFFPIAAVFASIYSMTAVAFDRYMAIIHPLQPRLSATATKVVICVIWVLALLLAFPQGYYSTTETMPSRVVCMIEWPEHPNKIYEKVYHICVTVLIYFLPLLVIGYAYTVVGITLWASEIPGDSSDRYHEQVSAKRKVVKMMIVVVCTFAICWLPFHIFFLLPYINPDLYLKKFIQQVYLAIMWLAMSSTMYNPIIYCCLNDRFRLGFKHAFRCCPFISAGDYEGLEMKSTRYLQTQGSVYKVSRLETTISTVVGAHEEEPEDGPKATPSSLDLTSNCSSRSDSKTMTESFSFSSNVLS

| Compound | IC50 |
| --- | --- |
| C[C@@H](O[C@H]1CCN(C(=O)[C@H]2CC[C@H](NS(C)(=O)=O)CC2)C[C@H]1c1ccccc1)c1cc(C(F)(F)F)cc(C(F)(F)F)c1 [Example 49, N-[trans-4-[[(3R,4S)-4-[(1R)-1-[3,5-Bis(trifluoromethyl)phenyl]ethoxy]-3-phenylpiperidin-1-yl]carbonyl]cyclohexyl]methanesulfonamide] | 0.055 nM |
| COc1ccc(-n2nnnc2C(F)(F)F)cc1C(C)N[C@H]1CCN(C(=O)CNC(C)=O)C[C@H]1c1ccccc1 (single isomer, unassigned) [Example 85] | 0.09 nM |
| CC(=O)NC1CCN(C(=O)N2CC[C@H](O[C@H](C)c3cc(C(F)(F)F)cc(C(F)(F)F)c3)[C@H](c3ccccc3)C2)CC1 [Example 73, N-[1-[[(3R,4S)-4-[(1R)-1-[3,5-bis(trifluoromethyl)phenyl]ethoxy]-3-phenylpiperidin-1-yl]carbonyl]piperidin-4-yl]acetamide] | 0.097 nM |
| C[C@@H](O[C@H]1CCN(C(=O)C2CC(=O)NC(=O)C2)C[C@H]1c1ccccc1)c1cc(C(F)(F)F)cc(C(F)(F)F)c1 [Example 76, 4-[[(3R,4S)-4-[(1R)-1-[3,5-Bis(trifluoromethyl)phenyl]ethoxy]-3-phenylpiperidin-1-yl]carbonyl]piperidine-2,6-dione] | 0.084 nM |
| C[C@@H](O[C@H]1CCN(C(=O)[C@H]2CC[C@H](NC(=O)C3CC3)CC2)C[C@H]1c1ccccc1)c1cc(C(F)(F)F)cc(C(F)(F)F)c1 [Example 46, N-[trans-4-[[(3R,4S)-4-[(1R)-1-[3,5-Bis(trifluoromethyl)phenyl]ethoxy]-3-phenylpiperidin-1-yl]carbonyl]cyclohexyl]cyclopropanecarboxamide] | 0.061 nM |
| COC(=O)N[C@H]1CC[C@H](C(=O)N2CC[C@H](O[C@H](C)c3cc(C(F)(F)F)cc(C(F)(F)F)c3)[C@H](c3ccccc3)C2)CC1 [Example 61, Methyl trans-4-[[(3R,4S)-4-[(1R)-1-[3,5-bis(trifluoromethyl)phenyl]ethoxy]-3-phenylpiperidin-1-yl]carbonyl]cyclohexylcarbamate] | 0.098 nM |
| CC(C)NC(=O)N[C@H]1CC[C@H](C(=O)N2CC[C@H](O[C@H](C)c3cc(C(F)(F)F)cc(C(F)(F)F)c3)[C@H](c3ccccc3)C2)CC1 [Example 65, N-[trans-4-[[(3R,4S)-4-[(1R)-1-[3,5-Bis(trifluoromethyl)phenyl]ethoxy]-3-phenylpiperidin-1-yl]carbonyl]cyclohexyl]-N′-isopropylurea] | 0.099 nM |
| C[C@@H](O[C@H]1CCN(C(=O)[C@H]2CC[C@H](NC(=O)CCCCCl)CC2)C[C@H]1c1ccccc1)c1cc(C(F)(F)F)cc(C(F)(F)F)c1 [Example 59, N-[trans-4-[[(3R,4S)-4-[(1R)-1-[3,5-Bis(trifluoromethyl)phenyl]ethoxy]-3-phenylpiperidin-1-yl]carbonyl]cyclohexyl]-5-chloropentanamide] | 0.087 nM |
| COc1ccc(-n2nnnc2C(F)(F)F)cc1C(C)N[C@H]1CCN(C(=O)C2CCN(C(C)=O)CC2)C[C@H]1c1ccccc1 (single isomer, unassigned) [Example 83] | 0.058 nM |
| CC(=O)N[C@H]1CC[C@@H](C(=O)N2CC[C@H](O[C@H](C)c3cc(C(F)(F)F)cc(C(F)(F)F)c3)[C@H](c3ccccc3)C2)CC1 [Example 54, N-[cis-4-[[(3R,4S)-4-[(1R)-1-[3,5-Bis(trifluoromethyl)phenyl]ethoxy]-3-phenylpiperidin-1-yl]carbonyl]cyclohexyl]acetamide] | 0.075 nM |
| CCNC(=O)N[C@H]1CC[C@H](C(=O)N2CC[C@H](O[C@H](C)c3cc(C(F)(F)F)cc(C(F)(F)F)c3)[C@H](c3ccccc3)C2)CC1 [Example 63, N-[trans-4-[[(3R,4S)-4-[(1R)-1-[3,5-Bis(trifluoromethyl)phenyl]ethoxy]-3-phenylpiperidin-1-yl]carbonyl]cyclohexyl]-N′-ethylurea] | 0.075 nM |
| C[C@@H](O[C@H]1CCN(C(=O)CC2NC(=O)NC2=O)C[C@H]1c1ccccc1)c1cc(C(F)(F)F)cc(C(F)(F)F)c1 (stereo partly drawn) [Example 78, 5-[2-[(3R,4S)-4-[(1R)-1-[3,5-Bis(trifluoromethyl)phenyl]ethoxy]-3-phenylpiperidin-1-yl]-2-oxoethyl]imidazolidine-2,4-dione] | 0.096 nM |

Molecules with a lower IC50, results first:

| IC50 | Compound |
| --- | --- |
| 0.053 nM | CCCC(=O)N[C@H]1CC[C@H](C(=O)N2CC[C@H](O[C@H](C)c3cc(C(F)(F)F)cc(C(F)(F)F)c3)[C@H](c3ccccc3)C2)CC1 [Example 44, N-[trans-4-[[(3R,4S)-4-[(1R)-1-[3,5-Bis(trifluoromethyl)phenyl]ethoxy]-3-phenylpiperidin-1-yl]carbonyl]cyclohexyl]butanamide] |
| 0.05 nM | CC(C)C(=O)N[C@H]1CC[C@H](C(=O)N2CC[C@H](O[C@H](C)c3cc(C(F)(F)F)cc(C(F)(F)F)c3)[C@H](c3ccccc3)C2)CC1 [Example 45, N-[trans-4-[[(3R,4S)-4-[(1R)-1-[3,5-Bis(trifluoromethyl)phenyl]ethoxy]-3-phenylpiperidin-1-yl]carbonyl]cyclohexyl]-2-methylpropanamide] |
| 0.043 nM | C[C@@H](O[C@H]1CCN(C(=O)C2CCN(C3CCOC3=O)CC2)C[C@H]1c1ccccc1)c1cc(C(F)(F)F)cc(C(F)(F)F)c1 (single isomer, unassigned) [Example 35, hydrochloride] |
| 0.035 nM | C[C@@H](O[C@H]1CCN(C(=O)C2CCN(C3CCOC3=O)CC2)C[C@H]1c1ccccc1)c1cc(C(F)(F)F)cc(C(F)(F)F)c1 (single isomer, unassigned) [Example 34, hydrochloride] |
| 0.032 nM | C[C@@H](O[C@H]1CCN(C(=O)C2CCN(C(=O)Cn3cnnn3)CC2)C[C@H]1c1ccccc1)c1cc(C(F)(F)F)cc(C(F)(F)F)c1 [Example 39, (3R,4S)-4-[(1R)-1-[3,5-Bis(trifluoromethyl)phenyl]ethoxy]-3-phenyl-1-[[1-(1H-tetrazol-1-ylacetyl)piperidin-4-yl]carbonyl]piperidine] |
| 0.025 nM | CC(=O)NCC(=O)N1CCC(C(=O)N2CC[C@H](O[C@H](C)c3cc(C(F)(F)F)cc(C(F)(F)F)c3)[C@H](c3ccccc3)C2)CC1 [Example 38, N-[2-[4-[[(3R,4S)-4-[(1R)-1-[3,5-Bis(trifluoromethyl)phenyl]ethoxy]-3-phenylpiperidin-1-yl]carbonyl]piperidin-1-yl]-2-oxoethyl]acetamide] |
| 0.023 nM | CC(=O)N[C@H]1CC[C@H](C(=O)N2CC[C@H](O[C@H](C)c3cc(C(F)(F)F)cc(C(F)(F)F)c3)[C@H](c3ccccc3)C2)CC1 [Example 42, N-[trans-4-[[(3R,4S)-4-[(1R)-1-[3,5-Bis(trifluoromethyl)phenyl]ethoxy]-3-phenylpiperidin-1-yl]carbonyl]cyclohexyl]acetamide] |
| 0.021 nM | C[C@@H](O[C@H]1CCN(C(=O)C2CCN(C(=O)Cn3cccn3)CC2)C[C@H]1c1ccccc1)c1cc(C(F)(F)F)cc(C(F)(F)F)c1 [Example 122, (3R,4S)-4-{(1R)-1-[3,5-Bis(trifluoromethyl)phenyl]ethoxy}-3-phenyl-1-{[1-(1H-pyrazol-1-ylacetyl)piperidin-4-yl]carbonyl}piperidine] |
| 0.02 nM | C[C@@H](O[C@H]1CCN(C(=O)C2CCN(C(=O)Cn3cncn3)CC2)C[C@H]1c1ccccc1)c1cc(C(F)(F)F)cc(C(F)(F)F)c1 [Example 119, (3R,4S)-4-{(1R)-1-[3,5-Bis(trifluoromethyl)phenyl]ethoxy}-3-phenyl-1-([1-(1H-1,2,4-triazol-1-ylacetyl)piperidin-4-yl]carbonyl}piperidine] |
